Laboratory results taken from patent US5756536A, “Microbial transformation of taxol and cephalomannine” (Purdue Research Foundation, priority 1996, dated 1998).
Converted amounts (≈) assume the structure as drawn. Where two headings read alike, the source gives them in different places.

Assays:
MCF-7 = assay: In vitro antitumor cytotoxicity, MTT microculture assay, MCF-7; type: cell-based; details: Homo sapiens, MCF7, 144 h
Procedure: (§1) The in vitro antitumor activity cytotoxicity was measured by a microculture assay using 3-(4,5-dimethylthiazol-2-yl)-2,5-diphenyl-tetrazolium bromide (MTT). This assay has an advantage over in vivo assay in that results are obtained within a week as opposed to several months. The assay was done in 96-well microtiter plates. The MTT assay is based on the transformation into a dark blue formazan product by dehydrogenase in the mitochondria of live tumor cells after exposure to drug for 6 days [M. C. Alley, D. A. Scudiero, A. Monks, M. L. Hursey, M. J. Czerwinski, D. L. Fine, B. J. Abbott, J. G. Mayo, R. H. Shoemaker and M. R. Boyd, Cancer Res., 48, 589, 1988.] Thus, only live cells are stained and can be measured at 570 nm. Antitumor cytotoxicity is reported as GI50, effect drug dose at which cell growth is retarded to 50% of control culture of tumor cells. The active compounds must have GI50 values that are less then 10^-4 M or 10 μg/ml.
(§2) Antitumor Cytotoxicity of Taxanes
(§3) Against Human Tumor Cell Lines
MCF7: breast adenocarcinoma

HT-29 = assay: In vitro antitumor cytotoxicity, MTT microculture assay, HT-29; type: cell-based; details: Homo sapiens
Procedure: as §1, §2, §3
HT29: colon adenocarcinoma

A-549 = assay: In vitro antitumor cytotoxicity, MTT microculture assay, A-549; type: cell-based; details: Homo sapiens, A549, 144 h
Procedure: as §1, §2, §3

tubulin [1] = details: cited from earlier work
[2] = system: drug-refractory ovarian cancer; details: in vivo; cited from earlier work
[3] = cited from earlier work
tubulin [4] = assay: FAT tubulin polymerization assay; type: biochemical
[5] = MCF-7 breast adenocarcinoma, drug exposure 6 days, MTT, 570 nm, read-out: GI50
[6] = 144 h, HT-29 colon adenocarcinoma, drug exposure 6 days, MTT, 570 nm, read-out: GI50
[7] = A-549 lung carcinoma, drug exposure 6 days, MTT, 570 nm, read-out: GI50

SMILES	effect on microtubule / tubulin polymer formation (tubulin [1])	GI50 (MCF-7; [5]) [ng/mL]	GI50 (HT-29; [6]) [ng/mL]	GI50 (A-549; [7]) [ng/mL]	further results
C/C=C(\C)C(=O)N[C@@H](c1ccccc1)[C@@H](O)C(=O)O[C@H]1C[C@@]2(O)[C@@H](OC(=O)c3ccccc3)[C@@H]3[C@]4(OC(C)=O)CO[C@@H]4C[C@H](O)[C@@]3(C)C(=O)[C@H](OC(C)=O)C(=C1C)C2(C)C [Caphalomannine, cephalomannine]					GI50 (MCF-7): 0.8 ng/mL (≈ 0.962 nM); GI50 (HT-29; HT-29, 144 h): 0.2 ng/mL (≈ 0.24 nM); GI50 (A-549): 0.1 ng/mL (≈ 0.12 nM)
CC[C@]1(O)C[C@@H]2CN(CCc3c([nH]c4ccccc34)[C@@](C(=O)OC)(c3cc4c(cc3OC)N(C)[C@H]3[C@@](O)(C(=O)OC)[C@H](OC(C)=O)[C@]5(CC)C=CCN6CC[C@]43[C@@H]65)C2)C1 [vinblastine]	prevent microtubule formation				
CC(=O)O[C@H]1C(=O)[C@@]2(C)[C@H]([C@H](OC(=O)c3ccccc3)[C@]3(O)C[C@H](OC(=O)[C@H](O)[C@@H](NC(=O)c4ccccc4)c4ccccc4)C(C)=C1C3(C)C)[C@]1(OC(C)=O)CO[C@@H]1C[C@@H]2O [Taxol]	promotes formation of microtubules	0.002 (≈ 0.00234 nM)	0.0001 (≈ 0.000117 nM)	0.0004 (≈ 0.000468 nM)	activity against drug-refractory ovarian cancer [2]: active agent against drug-refractory ovarian cancer; toxic effects in phase 1 clinical trials [3]: did not show excessive toxic effects; IC50 in the FAT tubulin polymerization assay (tubulin [4]): 17 ng/mL (≈ 19.9 nM)
CC(=O)O[C@H]1C(=O)[C@@]2(C)[C@H]([C@H](OC(=O)c3ccccc3)[C@]3(O)C[C@H](OC(=O)[C@H](O)[C@@H](NC(=O)c4ccc(O)cc4)c4ccccc4)C(C)=C1C3(C)C)[C@]1(OC(C)=O)CO[C@@H]1C[C@@H]2O [L-760,006]		0.01 (≈ 0.0115 nM)	0.08 (≈ 0.092 nM)	0.04 (≈ 0.046 nM)	
CC(=O)O[C@@]12CO[C@@H]1C[C@H](O)[C@@]1(C)C(=O)[C@H](OC(=O)CO)C3=C(C)[C@@H](OC(=O)[C@H](O)[C@@H](NC(=O)c4ccccc4)c4ccccc4)C[C@@](O)([C@@H](OC(=O)c4ccccc4)[C@H]21)C3(C)C [L-760,007, 10-hydroxyacetyl taxol]		0.04 (≈ 0.046 nM)	0.01 (≈ 0.0115 nM)	< 0.01	
CC(=O)O[C@H]1C(=O)[C@@]2(C)[C@H]([C@H](OC(=O)c3ccccc3)[C@]3(O)C[C@H](OC(=O)[C@H](O)[C@@H](NC(=O)/C(C)=C/CO)c4ccccc4)C(C)=C1C3(C)C)[C@]1(OC(C)=O)CO[C@@H]1C[C@@H]2O [L-745,596]		50 (≈ 59 nM)	20 (≈ 23.6 nM)	30 (≈ 35.4 nM)	
CC[C@]1(O)C[C@H]2CN(CCc3c([nH]c4ccccc34)[C@@](C(=O)OC)(c3cc4c(cc3OC)N(C=O)[C@H]3[C@@](O)(C(=O)OC)[C@H](OC(C)=O)[C@]5(CC)C=CCN6CC[C@]43[C@@H]65)C2)C1 [vineristine]	prevent microtubule formation				
